The source of these data is patent US6703540B1, “Transformation of plants with a chloroperoxidase gene to enhance disease resistance” (The United States of America as represented by the …, priority 2000, dated 2004).

Experiment [1] relates to Aspergillus flavus. Briefly: Comparative lethalities of oxidants to Aspergillus flavus. In kind it is cell-based. The note with it: mM concentrations of oxidants that produce 50% killing of Aspergillus flavus.
Experiment [2] has as its system endogenous peroxidase. Description: Endogenous peroxidase activity in leaf extracts assayed with guaiacol. In kind it is biochemical, Nicotiana tabacum. The note with it: guaiacol assay. The source says:
The validity of the assay procedure for CPO-P activity in transgenic tobacco was established in the following manner.

Experiment [3] relates to Aspergillus flavus. The settings on record: H2O2 converted to hypochlorite by myeloperoxidase, in vitro; cited from earlier work.

Molecule `OCl` [HOCl, hypochlorous acid] registered an LD50 in experiment [1] of 0.30 mM.
Consider `CC(=O)OO` [HOOAc, peracetic acid], for which the LD50 in experiment [1] is 0.15 mM.
Turning to `[N-]=[N+]=[N-].[Na+]` [NaN3], the “inhibition of endogenous peroxidase activity in leaf extracts (in words)” value in experiment [2] is “completely inhibited”.
In turn, `OO` [Plant H2O2, hydrogen peroxide] displayed an LD50 in experiment [1] of 18.00 mM.

B1: myeloperoxidase: animal haloperoxidase converting hydrogen peroxide to hypochlorous acid (protein, UniProt P05164 165-745, looked up)
Myeloperoxidase: VTCPEQDKYRTITGMCNNRRSPTLGASNRAFVRWLPAEYEDGFSLPYGWTPGVKRNGFPVALARAVSNEIVRFPTDQLTPDQERSLMFMQWGQLLDHDLDFTPEPAARASFVTGVNCETSCVQQPPCFPLKIPPNDPRIKNQADCIPFFRSCPACPGSNITIRNQINALTSFVDASMVYGSEEPLARNLRNMSNQLGLLAVNQRFQDNGRALLPFDNLHDDPCLLTNRSARIPCFLAGDTRSSEMPELTSMHTLLLREHNRLATELKSLNPRWDGERLYQEARKIVGAMVQIITYRDYLPLVLGPTAMRKYLPTYRSYNDSVDPRIANVFTNAFRYGHTLIQPFMFRLDNRYQPMEPNPRVPLSRVFFASWRVVLEGGIDPILRGLMATPAKLNRQNQIAVDEIRERLFEQVMRIGLDLPALNMQRSRDHGLPGYNAWRRFCGLPQPETVGQLGTVLRNLKLARKLMEQYGTPNNIDIWMGGVSEPLKRKGRVGPLLACIIGTQFRKLRDGDRFWWENEGVFSMQQRQALAQISLPRIICDNTGITTVSKNNIFMSNSYPRDFVNCSTLPALNLASWREAS
For B1, the “increase in lethality against Aspergillus flavus” value in experiment [3] is at most 90 fold.
